Reference: patent US10774064B2 (Cadent Therapeutics, Inc., priority 2016, dated 2020)

Biological target: T1, small-conductance Ca2+-activated K+ channels (SK channels, subtype 2) (Homo sapiens, UniProt Q9H2S1)
T1 construct: expressed in transfected cells; host or cells: HEK293
Assay: whole-cell patch-clamp of ionic current through SK2 channels in HEK293 cells (SC100)
Type: cell-based
Settings: concentration that increases the basal current by 100%; HEK293 cells expressing SK2 channels
Outline: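 Whole-cell patch-clamp recording of current in HEK293 cells expressing SK2 channels. SC100 is the compound concentration that increases basal current by 100%.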

Row | Structure (SMILES) | SC100
1 | Cc1cc(NC2CCC(C(F)(F)F)CC2)nc(-n2ccc(C)n2)n1 (stereo not drawn) [Compound 144, 6-methyl-2-(3-methyl-1H-pyrazol-1-yl)-N-(4-(trifluoromethyl)cyclohexyl)pyrimidin-4-amine] | + (+ means >1 uM)
2 | Cc1cc(C)n(-c2nc(NCc3ncco3)cc(NC3CCC(F)(F)CC3)n2)n1 [Compound 145, N4-(4,4-difluorocyclohexyl)-2-(3,5-dimethyl-1H-pyrazol-1-yl)-N6-(oxazol-2-ylmethyl)pyrimidine-4,6-diamine] | + (+ means >1 uM)

Continued, values first:

Row | SC100 | Structure (SMILES)
3 | ++ (++ means 200 nM-1000 nM) | Cc1cc(C)n(-c2nc(NC3CCC(F)(F)CC3)cc(C3CC3)n2)n1 [Compound 186, 6-cyclopropyl-N-(4,4-difluorocyclohexyl)-2-(3,5-dimethyl-1H-pyrazol-1-yl)pyrimidin-4-amine]
4 | ++ (++ means 200 nM-1000 nM) | Cc1cc(NC2CCC(F)(F)CC2)nc(-n2nc(C)c(F)c2C)n1 [Compound 201, N-(4,4-difluorocyclohexyl)-2-(4-fluoro-3,5-dimethyl-1H-pyrazol-1-yl)-6-methylpyrimidin-4-amine]
5 | + (+ means >1 uM) | Cc1cc(C)n(-c2nc(NC3CCC(F)(F)CC3)cc(N3CCOC(C(N)=O)C3)n2)n1 (stereo not drawn) [Compound 115, 4-(6-((4,4-difluorocyclohexyl)amino)-2-(3,5-dimethyl-1H-pyrazol-1-yl)pyrimidin-4-yl)morpholine-2-carboxamide]
6 | ++ (++ means 200 nM-1000 nM) | Cc1cc(NC2CCC(F)(F)CC2)nc(-n2nc(C(F)F)cc2C)n1 [Compound 237, N-(4,4-difluorocyclohexyl)-2-(3-(difluoromethyl)-5-methyl-1H-pyrazol-1-yl)-6-methylpyrimidin-4-amine]
7 | ++ (++ means 200 nM-1000 nM) | Cc1ccn(-c2nc(NCC(C)(C)C)cc(NC3CCC(F)(F)CC3)n2)n1 [Compound 146, N4-(4,4-difluorocyclohexyl)-2-(3-methyl-1H-pyrazol-1-yl)-N6-neopentylpyrimidine-4,6-diamine]
8 | ++ (++ means 200 nM-1000 nM) | Cc1cc(C)n(-c2nc(NC3CCC(F)(F)CC3)cc(C(C)O)n2)n1 (stereo not drawn) [Compound 136]

Same assay, conditions: whole-cell patch-clamp, HEK293 cells expressing SK2 channels; concentration that increases the basal current by 100%

Row | Structure (SMILES) | SC100 (μM)
9 | Cc1csc(-c2nc(NC3CCC(F)(F)CC3)cc(OC3CC(C)(O)C3)n2)n1 (stereo not drawn) [NSSy5740] | ++ (++ means 200 nM-1000 nM)
10 | Cc1csc(-c2cc(N3CCN(C4COC4)CC3)cc(NC3CCC(F)(F)CC3)n2)n1 [NSSy5819] | ++ (++ means 200 nM-1000 nM)
11 | Cc1cc(C)n(-c2nc(NC3CCC(F)(F)CC3)cc(C(C)OC(C)C)n2)n1 (stereo not drawn) [IN10963-068-P1, N-(4,4-difluorocyclohexyl)-2-(3,5-dimethyl-1H-pyrazol-1-yl)-6-(1-isopropoxyethyl)pyrimidin-4-amine] | + (+ means >1 uM)
12 | COC(=O)N1CC(Oc2cc(NC3CCCCC3)nc(-c3csc(C)n3)n2)C1 [NSSy6133] | + (+ means >1 uM)
13 | COC(=O)N1CC(Oc2cc(NC3CCC(F)(F)CC3)cc(-c3nc(C)cs3)c2)C1 [NSSy5972, methyl 3-(3-((4,4-difluorocyclohexyl)amino)-5-(4-methylthiazol-2-yl)phenoxy) azetidine-1-carboxylate] | + (+ means >1 uM)
14 | Cc1ccn(-c2nc(NC3CCC(F)CC3)cc(OC3CN(C(=O)C(C)C)C3)n2)n1 (stereo not drawn) [NSSy5765] | ++ (++ means 200 nM-1000 nM)
15 | Cc1cc(C)n(-c2nc(NC3CCC(F)(F)CC3)cc(N3CCOCC3COC(C)C)n2)n1 (stereo not drawn) [IN10965-089-P1] | ++ (++ means 200 nM-1000 nM)
16 | CC(=O)N1CCN(c2cc(-n3ccc(O)n3)nc(NC3CCC(F)(F)CC3)n2)CC1 [NSSy6972, 1-(4-(2-((4,4-difluorocyclohexyl)amino)-6-(3-hydroxy-1H-pyrazol-1-yl)pyrimidin-4-yl)piperazin-1-yl) ethan-1-one] | + (+ means >1 uM)
17 | COC(=O)N1CC(Oc2cc(NC3CCCCC3)nc(-c3nc(C)cs3)n2)C1 [NSSy6099] | +++ (+++ means <200 nM)
18 | Cc1cc(C)n(-c2nc(NC3CCC(F)(F)CC3)cc([S+](C)[O-])n2)n1 (stereo not drawn) [IN11067-062-P1] | + (+ means >1 uM)
19 | Cc1csc(-c2nc(NC3CCC(F)(F)CC3)cc(N3CCOC(CNC(=O)OC(C)(C)C)C3)n2)n1 (stereo not drawn) [IN10880-033-P1] | ++ (++ means 200 nM-1000 nM)
20 | Cc1cc(C)n(-c2nc(NC3CC(F)(F)C3)cc(N3CCOCC3)n2)n1 [IN11108-019-P1] | + (+ means >1 uM)
21 | Cc1csc(-c2nc(NC3CCC(F)(F)CC3)c(O)c(=O)[nH]2)n1 [IN11039-094-P1, 6-((4,4-difluorocyclohexyl)amino)-2-(4-methylthiazol-2-yl) pyrimidine-4,5-diol] | + (+ means >1 uM)
22 | Cc1csc(-c2cc(S(C)(=O)=O)cc(NC3CCC(F)(F)CC3)n2)n1 [IN11147-036-P1, N-(4,4-difluorocyclohexyl)-4-(methylsulfonyl)-6-(4-methylthiazol-2-yl)pyridin-2-amine] | +++ (+++ means <200 nM)
23 | Cc1csc(-c2nc(NC3CCC(F)CC3)cc(N3CCOCC3)n2)n1 (stereo not drawn) [NSSy5699, N-(4-fluorocyclohexyl)-2-(4-methylthiazol-2-yl)-6-morpholinopyrimidin-4-amine] | + (+ means >1 uM)
24 | COC(=O)N(C)Cc1cc(NC2CCC(F)(F)CC2)nc(-c2nc(C)cs2)c1 [IN11251-043-P1] | ++ (++ means 200 nM-1000 nM)
25 | FC1(F)CCC(Nc2cc(N3CCOCC3)nc(-c3ccc[nH]3)n2)CC1 [IN11030-023-P1, N-(4,4-difluorocyclohexyl)-6-morpholino-2-(1H-pyrrol-2-yl)pyrimidin-4-amine] | + (+ means >1 uM)
26 | COc1cc(NC2CCC(F)CC2)nc(-c2nc(C)cs2)n1 (stereo not drawn) [IN11067-072-P1] | + (+ means >1 uM)
27 | Cc1cc(C)n(-c2cc(CO)cc(NC3CC(F)(F)C3)n2)n1 [IN11146-039-P1, (2-((3,3-difluorocyclobutyl)amino)-6-(3,5-dimethyl-1H-pyrazol-1-yl)pyridin-4-yl) methanol] | + (+ means >1 uM)
28 | Cc1cccc(-c2cc(CO)cc(NC3CCC(F)(F)CC3)n2)n1 [IN11111-063-P1, (6-((4,4-difluorocyclohexyl)amino)-6′-methyl-[2,2′-bipyridin]-4-yl)methanol] | + (+ means >1 uM)
29 | Cc1nn(-c2cc(C(O)c3ncco3)cc(NC3CCC(F)(F)CC3)n2)c(C)c1F (stereo not drawn) [NSSy6473] | ++ (++ means 200 nM-1000 nM)
30 | COCc1cnc(-c2nc(C)cs2)nc1NC1CCC(F)(F)CC1 [IN11238-046-P1] | + (+ means >1 uM)
31 | CCOc1cc(NC2CCC(F)(F)CC2)nc(-n2nc(C)cc2C)n1 [IN11121-042-P1, N-(4,4-difluorocyclohexyl)-2-(3,5-dimethyl-1H-pyrazol-1-yl)-6-ethoxypyrimidin-4-amine] | + (+ means >1 uM)
32 | Cc1cc(NC2CC=C(F)CC2)nc(-c2nc(C)cs2)n1 (stereo not drawn) [IN10966-057-P2, N-(4-fluorocyclohex-3-en-1-yl)-6-methyl-2-(4-methylthiazol-2-yl)pyrimidin-4-amine] | ++ (++ means 200 nM-1000 nM)
33 | Cc1cc(C)n(-c2cc(N3CCOCC3)cc(NC3CCC(F)(F)CC3)n2)n1 [IN10991-044-P1, N-(4,4-difluorocyclohexyl)-6-(3,5-dimethyl-1H-pyrazol-1-yl)-4-morpholinopyridin-2-amine] | ++ (++ means 200 nM-1000 nM)

Now from value to molecule:

Row | SC100 (μM) | Structure (SMILES)
34 | + (+ means >1 uM) | Cc1ccn(-c2nc(NC3CCC(N)CC3)cc(N3CCOCC3)n2)n1 (stereo not drawn) [NSSy6550]
35 | + (+ means >1 uM) | Cc1cc(NC2CCC(F)(F)CC2)nc(-n2ccc(C3=CCCC3)n2)n1 [IN11250-007-P1, 2-(3-(cyclopent-1-en-1-yl)-1H-pyrazol-1-yl)-N-(4,4-difluorocyclohexyl)-6-methylpyrimidin-4-amine]
36 | + (+ means >1 uM) | Cc1cc(NC2CCC(F)(F)CC2)nc(Cn2nccc2C)n1 [IN11273-015-P2, N-(4,4-difluorocyclohexyl)-6-methyl-2-((5-methyl-1H-pyrazol-1-yl)methyl)pyrimidin-4-amine]
37 | + (+ means >1 uM) | Fc1ccn(-c2nc(NC3CCC(F)(F)CC3)cc(N3CCOCC3)n2)n1 [NSSy6343]
38 | ++ (++ means 200 nM-1000 nM) | Cc1ccn(-c2cc(CN(C)C)cc(NC3CCC(F)(F)CC3)n2)n1 [IN11063-006-P1, N-(4,4-difluorocyclohexyl)-4-((dimethylamino)methyl)-6-(3-methyl-1H-pyrazol-1-yl)pyridin-2-amine]
39 | ++ (++ means 200 nM-1000 nM) | Cc1ccn(-c2cc(C(F)F)cc(NC3CCC(F)(F)CC3)n2)n1 [NSSy5839, N-(4,4-difluorocyclohexyl)-4-(difluoromethyl)-6-(3-methyl-1H-pyrazol-1-yl)pyridin-2-amine]
40 | +++ (+++ means <200 nM) | COC(=O)N1CCC(c2cc(-n3ccc(C)n3)nc(NC3CCC(F)(F)CC3)n2)CC1 [NSSy6981, methyl 4-(2-((4,4-difluorocyclohexyl)amino)-6-(3-methyl-1H-pyrazol-1-yl)pyrimidin-4-yl)piperidine-1-carboxylate]
41 | + (+ means >1 uM) | Cc1ccn(-c2nc(NC3CCC(F)(F)CC3)cc(OCC(F)(F)F)n2)n1 [IN11054-011-P1]
42 | +++ (+++ means <200 nM) | Cc1ccn(-c2cc(OCc3cnco3)cc(NC3CCC(F)(F)CC3)n2)n1 [IN11177-056-P1]
43 | + (+ means >1 uM) | Cc1cc(NC2CCC(F)(F)CC2)nc(-n2cc3c(n2)CCC3)n1 [IN11216-001-P1]
44 | + (+ means >1 uM) | COC(C)c1cc(NC2CCC(F)(F)CC2)nc(-n2ccc(C3CC3)n2)n1 (stereo not drawn) [IN11196-026-P1, 2-(3-cyclopropyl-1H-pyrazol-1-yl)-N-(4,4-difluorocyclohexyl)-6-(1-methoxyethyl)pyrimidin-4-amine]
45 | ++ (++ means 200 nM-1000 nM) | Cc1ccn(-c2nc(NC3CCC(F)(F)CC3)cc(N3CC(F)(F)OC(F)(F)C3)n2)n1 [IN11030-044-P1]
